Measured values published in PubChem BioAssay AID1963442 (Molecular Pharmacology Branch, DTP, NCI, 2024).

Tested on: MPNST complex spheroid with HUVEC/MSC, growth, % test/control
Experiment: Anticancer human tumor MPNST cell line growth inhibition [Asc];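 note: compounds left on spheroids for seven days before reading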
Conditions: for IC50: curve of first compound; for viability, T/C: stronger effect = lower value
Outline: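 Spheroid model: tumor line + HUVEC + hMSC. Single agents and combinations; top conc. at/near clinical Cmax (10 microM if undetermined), half-log dilutions. DMSO stocks at 800-fold test concentration.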

[1] = second compound 0.03 µM, first compound 0.0316 µM
[2] = second compound 0.03 µM, first compound 0.1 µM
[3] = second compound 0.03 µM, first compound 0.316 µM
[4] = second compound 0.03 µM, first compound 1 µM
[5] = second compound 0.0949 µM, first compound 0.0316 µM
[6] = second compound 0.0949 µM, first compound 0.1 µM
[7] = second compound 0.0949 µM, first compound 0.316 µM
[8] = second compound 0.0949 µM, first compound 1 µM
[9] = second compound 0.3 µM, first compound 0.0316 µM
[10] = second compound 0.3 µM, first compound 0.1 µM
[11] = second compound 0.3 µM, first compound 0.316 µM
[12] = second compound 0.3 µM, first compound 1 µM
[13] = second compound 0.949 µM, first compound 0.0316 µM
[14] = second compound 0.949 µM, first compound 0.1 µM
[15] = second compound 0.949 µM, first compound 0.316 µM
[16] = second compound 0.949 µM, first compound 1 µM
[17] = second compound 3 µM, first compound 0.0316 µM
[18] = second compound 3 µM, first compound 0.1 µM
[19] = second compound 3 µM, first compound 0.316 µM
[20] = second compound 3 µM, first compound 1 µM

## C#Cc1c(F)ccc2cc(O)cc(-c3ncc4c(N5CC6CCC(C5)N6)nc(OCC56CCCN5CC(F)C6)nc4c3F)c12 (stereo not given) + CCN1C(C(=O)NC23CCC(C(=O)O)(CC2)CC3)C(c2cccc(Cl)c2F)C2(C(=O)Nc3cc(Cl)ccc32)C12CCCCC2
Second compound 0.03 µM
  IC50: > 10 µM
Second compound 0.0949 µM
  IC50: > 10 µM
Second compound 0.3 µM
  IC50: > 10 µM
Second compound 0.949 µM
  IC50: > 10 µM
Second compound 3 µM
  IC50: > 10 µM
[1]
  viability, T/C: 71.3%
[2]
  viability, T/C: 72.9%
[3]
  viability, T/C: 79.2%
[4]
  viability, T/C: 75.8%
Second compound 0.03 µM, first compound 3.16 µM
  viability, T/C: 78.4%
Second compound 0.03 µM, first compound 10 µM
  viability, T/C: 68.4%
[5]
  viability, T/C: 70.3%
[6]
  viability, T/C: 83.3%
[7]
  viability, T/C: 75.7%
[8]
  viability, T/C: 76.7%
Second compound 0.0949 µM, first compound 3.16 µM
  viability, T/C: 71.2%
Second compound 0.0949 µM, first compound 10 µM
  viability, T/C: 77%
[9]
  viability, T/C: 84.6%
[10]
  viability, T/C: 73.6%
[11]
  viability, T/C: 89.1%
[12]
  viability, T/C: 72.6%
Second compound 0.3 µM, first compound 3.16 µM
  viability, T/C: 60.8%
Second compound 0.3 µM, first compound 10 µM
  viability, T/C: 51%
[13]
  viability, T/C: 66.8%
[14]
  viability, T/C: 72%
[15]
  viability, T/C: 73%
[16]
  viability, T/C: 60.9%
Second compound 0.949 µM, first compound 3.16 µM
  viability, T/C: 61.1%
Second compound 0.949 µM, first compound 10 µM
  viability, T/C: 52.5%
[17]
  viability, T/C: 66.5%
[18]
  viability, T/C: 62.2%
[19]
  viability, T/C: 57.8%
[20]
  viability, T/C: 59.8%
Second compound 3 µM, first compound 3.16 µM
  viability, T/C: 60.1%
Second compound 3 µM, first compound 10 µM
  viability, T/C: 68.8%

## CNC(C)C(=O)NC1CN(S(=O)(=O)c2cccc(S(=O)(=O)N3CCC4CCC(C(=O)NC(c5ccccc5)c5ccccc5)N4C(=O)C(NC(=O)C(C)NC)C3)c2)CCC2CCC(C(=O)NC(c3ccccc3)c3ccccc3)N2C1=O (stereo not given) + CCN1C(C(=O)NC23CCC(C(=O)O)(CC2)CC3)C(c2cccc(Cl)c2F)C2(C(=O)Nc3cc(Cl)ccc32)C12CCCCC2
Second compound 0.03 µM
  IC50: > 1 µM
Second compound 0.0949 µM
  IC50: > 1 µM
Second compound 0.3 µM
  IC50: > 1 µM
Second compound 0.949 µM
  IC50: > 1 µM
Second compound 3 µM
  IC50: > 1 µM
Second compound 0.03 µM, first compound 0.00316 µM
  viability, T/C: 74.7%
Second compound 0.03 µM, first compound 0.01 µM
  viability, T/C: 78.1%
[1]
  viability, T/C: 94.7%
[2]
  viability, T/C: 114%
[3]
  viability, T/C: 106%
[4]
  viability, T/C: 93%
Second compound 0.0949 µM, first compound 0.00316 µM
  viability, T/C: 92.5%
Second compound 0.0949 µM, first compound 0.01 µM
  viability, T/C: 93.9%
[5]
  viability, T/C: 100%
[6]
  viability, T/C: 100%
[7]
  viability, T/C: 108%
[8]
  viability, T/C: 89.3%
Second compound 0.3 µM, first compound 0.00316 µM
  viability, T/C: 101%
Second compound 0.3 µM, first compound 0.01 µM
  viability, T/C: 99.7%
[9]
  viability, T/C: 99.4%
[10]
  viability, T/C: 99.8%
[11]
  viability, T/C: 96.6%
[12]
  viability, T/C: 122%
Second compound 0.949 µM, first compound 0.00316 µM
  viability, T/C: 98.1%
Second compound 0.949 µM, first compound 0.01 µM
  viability, T/C: 93.2%
[13]
  viability, T/C: 107%
[14]
  viability, T/C: 104%
[15]
  viability, T/C: 105%
[16]
  viability, T/C: 106%
Second compound 3 µM, first compound 0.00316 µM
  viability, T/C: 86.2%
Second compound 3 µM, first compound 0.01 µM
  viability, T/C: 86.9%
[17]
  viability, T/C: 100%
[18]
  viability, T/C: 104%
[19]
  viability, T/C: 93.8%
[20]
  viability, T/C: 118%

## Cc1nc(N2CCC3(CC2)COC(C)C3N)c(CO)nc1Sc1ccnc(N)c1Cl (stereo not given) + CCN1C(C(=O)NC23CCC(C(=O)O)(CC2)CC3)C(c2cccc(Cl)c2F)C2(C(=O)Nc3cc(Cl)ccc32)C12CCCCC2
Second compound 0.03 µM
  IC50: > 3 µM
Second compound 0.0949 µM
  IC50: > 3 µM
Second compound 0.3 µM
  IC50: > 3 µM
Second compound 0.949 µM
  IC50: > 3 µM
Second compound 3 µM
  IC50: > 3 µM
Second compound 0.03 µM, first compound 0.00949 µM
  viability, T/C: 92%
Second compound 0.03 µM, first compound 0.03 µM
  viability, T/C: 84.1%
Second compound 0.03 µM, first compound 0.0949 µM
  viability, T/C: 90.7%
Second compound 0.03 µM, first compound 0.3 µM
  viability, T/C: 87.9%
Second compound 0.03 µM, first compound 0.949 µM
  viability, T/C: 101%
Second compound 0.03 µM, first compound 3 µM
  viability, T/C: 75.5%
Second compound 0.0949 µM, first compound 0.00949 µM
  viability, T/C: 83.8%
Second compound 0.0949 µM, first compound 0.03 µM
  viability, T/C: 89%
Second compound 0.0949 µM, first compound 0.0949 µM
  viability, T/C: 92.2%
Second compound 0.0949 µM, first compound 0.3 µM
  viability, T/C: 82.2%
Second compound 0.0949 µM, first compound 0.949 µM
  viability, T/C: 75.5%
Second compound 0.0949 µM, first compound 3 µM
  viability, T/C: 58.3%
Second compound 0.3 µM, first compound 0.00949 µM
  viability, T/C: 101%
Second compound 0.3 µM, first compound 0.03 µM
  viability, T/C: 83.6%
Second compound 0.3 µM, first compound 0.0949 µM
  viability, T/C: 92.8%
Second compound 0.3 µM, first compound 0.3 µM
  viability, T/C: 77.2%
Second compound 0.3 µM, first compound 0.949 µM
  viability, T/C: 83.2%
Second compound 0.3 µM, first compound 3 µM
  viability, T/C: 63.4%
Second compound 0.949 µM, first compound 0.00949 µM
  viability, T/C: 77.9%
Second compound 0.949 µM, first compound 0.03 µM
  viability, T/C: 89.9%
Second compound 0.949 µM, first compound 0.0949 µM
  viability, T/C: 70%
Second compound 0.949 µM, first compound 0.3 µM
  viability, T/C: 76.7%
Second compound 0.949 µM, first compound 0.949 µM
  viability, T/C: 68%
Second compound 0.949 µM, first compound 3 µM
  viability, T/C: 54.4%
Second compound 3 µM, first compound 0.00949 µM
  viability, T/C: 66.3%
Second compound 3 µM, first compound 0.03 µM
  viability, T/C: 75.9%
Second compound 3 µM, first compound 0.0949 µM
  viability, T/C: 72.4%
Second compound 3 µM, first compound 0.3 µM
  viability, T/C: 67.8%
Second compound 3 µM, first compound 0.949 µM
  viability, T/C: 52.3%
Second compound 3 µM, first compound 3 µM
  viability, T/C: 55.8%
